Four molecules from paper PMC12669630, “The twist-and-squeeze activation of CARF-fused adenosine deaminase by cyclic oligoadenylates” (The EMBO Journal, 2025) can be followed below.

What is called stoichiometry N is the number of molecules, sites or subunits per partner or assembly.

Like-named read-outs stand apart in the source and are kept apart here.

Assay [1] has as its target T1, TaqCad1 (Thermoanaerobaculum aquaticum, UniProt A0A062XY19, N549D).
T1 construct: gene EG19_07865; full length 1-625, C-terminal His6 tag kept, E. coli NiCo21(DE3); homohexamer (trimer of dimers); N-terminal CARF, C-terminal ADA domain
Briefly: HPLC ATP deamination assay. In kind it is biochemical. The following applies: no conversion; cA4 activator, Mg2+, pH 7.5, 55 °C.

In assay [2] the target is T2, TaqCad1 (Thermoanaerobaculum aquaticum, UniProt A0A062XY19, G264D/N549D).
T2 construct: gene EG19_07865; full length 1-625, C-terminal His6 tag kept, E. coli NiCo21(DE3); homohexamer (trimer of dimers); N-terminal CARF, C-terminal ADA domain
The assay can be described thus: HPLC ATP deamination assay. In kind it is biochemical. The following applies: no conversion; cA4 activator, Mg2+, pH 7.5, 55 °C.

Assay [3] addresses T3, TaqCad1 (Thermoanaerobaculum aquaticum, UniProt A0A062XY19).
T3 construct: gene EG19_07865; full length 1-625, C-terminal His6 tag kept, E. coli NiCo21(DE3); homohexamer (trimer of dimers); N-terminal CARF, C-terminal ADA domain
Briefly: microscale thermophoresis (RED-tris-NTA labelled protein). In kind it is binding.

Assay [4] deals with TaqCad1 R408D/A411E variant (Thermoanaerobaculum aquaticum). Briefly: SEC; gel filtration elution profiles of wild type and R408D/A411E compared; column and buffer of this run not stated. (In general: Size exclusion chromatography separates by hydrodynamic size, large species first.)

T3 sequence (A0A062XY19 entry or part of it): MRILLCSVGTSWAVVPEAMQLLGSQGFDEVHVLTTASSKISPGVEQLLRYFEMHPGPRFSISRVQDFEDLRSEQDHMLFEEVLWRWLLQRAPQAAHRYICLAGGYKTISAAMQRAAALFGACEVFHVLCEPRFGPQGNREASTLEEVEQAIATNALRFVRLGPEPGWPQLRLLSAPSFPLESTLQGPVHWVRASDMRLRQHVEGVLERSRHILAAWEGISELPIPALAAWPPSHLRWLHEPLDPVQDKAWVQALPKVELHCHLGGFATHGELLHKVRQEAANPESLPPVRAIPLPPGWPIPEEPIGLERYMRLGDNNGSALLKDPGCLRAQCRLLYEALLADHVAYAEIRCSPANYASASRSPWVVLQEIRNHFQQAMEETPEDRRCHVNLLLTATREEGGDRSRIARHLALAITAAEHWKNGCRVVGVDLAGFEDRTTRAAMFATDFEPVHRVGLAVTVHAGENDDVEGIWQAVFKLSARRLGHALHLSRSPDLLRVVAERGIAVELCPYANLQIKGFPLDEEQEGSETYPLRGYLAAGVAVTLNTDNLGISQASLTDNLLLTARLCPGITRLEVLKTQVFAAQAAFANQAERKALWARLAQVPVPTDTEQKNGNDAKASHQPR
T1 sequence (A0A062XY19 entry or part of it N549D): as the sequence (A0A062XY19 entry or part of it) above, with N549D counted along it
T2 sequence (A0A062XY19 entry or part of it G264D/N549D): as the sequence (A0A062XY19 entry or part of it) above, with G264D, N549D counted along it

For `Nc1ncnc2c1ncn2[C@@H]1O[C@H](COP(=O)(O)OP(=O)(O)OP(=O)(O)O)[C@@H](O)[C@H]1O` [ATP], the “HPLC ATP deamination assay” value on TaqCad1 [1] and on TaqCad1 [2] was “the N549D or the N549D/G264D variant of TaqCad1 did not react to ATP” throughout.
In the case of `Nc1ncnc2c1ncn2[C@@H]1O[C@@H]2COP(=O)(O)O[C@H]3[C@@H](O)[C@H](n4cnc5c(N)ncnc54)O[C@@H]3COP(=O)(O)O[C@H]3[C@@H](O)[C@H](n4cnc5c(N)ncnc54)O[C@@H]3COP(=O)(O)O[C@H]3[C@@H](O)[C@H](n4cnc5c(N)ncnc54)O[C@@H]3COP(=O)(O)O[C@H]2[C@H]1O` [cA4], the Kd on TaqCad1 [3] (read-out: apparent Kd) came to 13 ± 7 nM.
Turning to `Nc1ncnc2c1ncn2[C@@H]1O[C@@H]2COP(=O)(O)O[C@H]3[C@@H](O)[C@H](n4cnc5c(N)ncnc54)O[C@@H]3COP(=O)(O)O[C@H]3[C@@H](O)[C@H](n4cnc5c(N)ncnc54)O[C@@H]3COP(=O)(O)O[C@H]3[C@@H](O)[C@H](n4cnc5c(N)ncnc54)O[C@@H]3COP(=O)(O)O[C@H]3[C@@H](O)[C@H](n4cnc5c(N)ncnc54)O[C@@H]3COP(=O)(O)O[C@H]3[C@@H](O)[C@H](n4cnc5c(N)ncnc54)O[C@@H]3COP(=O)(O)O[C@H]2[C@H]1O` [cA6], the Kd at TaqCad1 [3] (read-out: apparent dissociation constant) is around 1400 nM.
As to TaqCad1 R408D/A411E variant (enzyme), the stoichiometry N in assay [4] came out at 2.
